These results are taken from US10449177B2, “Methods of treating mild cognitive impairment (MCI) and related disorders” (Buck Institute for Research on Aging, priority 2010, dated 2019).

The test system of one data set is APP. Put plainly: sAPPα, Aβ40 and Aβ42 levels in brain (PD) of APP transgenic (PDAPP) mice. The format is in vivo. The conditions noted are these: Tg mice; for Aβ40 levels / Aβ42 levels / sAPPα levels in hippocampus (Hip) and entorhinal cortex (ECx): 10 mpk sc, 5 days. As for the experimental part: […] Analysis: […]® kits from Perkin Elmer (PE) were used to quantify sAPPα (cat#: AL254C), sAPPβ (cat#: AL232C), Aβ40 (cat #: AL275C), Aβ42 (cat#: AL276C) and Tau (cat#: AL271C) from brain homogenates. The samples are added to an AlphaPlate-384 (cat#: 6005350). Twenty microliters (μl) of acceptor bead antibody mix was added to each five μl cerebrospinal fluid (CSF) sample and allowed to incubate for one hour at room temperature. Next, 25 μl of donor beads were added and allowed to incubate in the dark for 30 minutes at room temperature. Fluorescence was then measured on an EnsPire 96-well plate reader (Perkin-Elmer).
ELISA assays: ELISA kits from Invitrogen were also used to quantify Aβ1-40 (KHB3481) and Aβ1-42 (KHB3544) in duplicate from the CSF samples stored at −80° C. For assay, samples were thawed on ice and BSL-2 precautions practiced at all times. For the human Aβ 1-42 ultrasensitive ELISA, samples were diluted 1:2 (50 μl CSF plus 50 μl kit-provided standard diluent buffer). For the human Aβ1-40 ELISA, samples were diluted 1:15 (6.7 μl CSF plus […] of standard diluent buffer). Assays were performed according to manufacturer's instructions. In short, standards and samples were added to a plate pre-coated with a monoclonal capture antibody specific for the amino terminus of Hu Aβ. The samples were co-incubated with a rabbit detection antibody (Ab) specific for the carboxy terminus of the Aβ species being assayed for 3 hr at room temperature (Aβ 1-40) to overnight at 4° (Aβ 1-42) with gentle rocking After washing, bound rabbit Ab was detected using a horseradish peroxidase-labeled anti-rabbit secondary Ab. After washing again, bound HRP-anti rabbit Ab was detected colorimetrically (Spectramax 190, Molecular Devices) by the addition of a substrate solution. 1 mM 4-(2-Aminoethyl)benzenesulfonyl fluoride hydrochloride (AEBSF) protease inhibitor (101500, Calbiochem) was added to standards and samples.
In case of tropisetron the testing was done at 0.3 mpk, while in case of the other compounds (e.g., nimetazepam, disulfuram and honokiol) it was done at 10 mpk. From the collected brains the hippocampi were dissected. Levels of sAPPα, and Aβ1-40, Aβ1-42 and APPneo were measured by […] assay ([…] Perkin-Elmer), and Aβ1-40, Aβ1-42 (Invitrogen, sensitive ELISA kit) in brain homogenates of Tg mice. All procedures involved have been described (Galavan 2006, Proc Natl Acad Sci USA, 103, 7130-7135). […] The brain-to-plasma ratio (PK) of tropisetron and sAPPalpha/Aβ42 ratios (PD) were then determined.

Data set [1] is described as follows: Brain uptake testing (PK): plasma and brain levels by LC/MS/MS. More on the design: species or system mice. Conditions: mouse, in vivo, sc. As for the experimental part: Brain uptake testing (PK): In general, CNS exposure studies consisted of collection of heparinized plasma and brains after treatment with tropisetron, nimetazepam, disulfuram and honokiol following subcutaneous (sc) administration of the molecules at 10 mg/kg. Plasma and brain levels of the compounds were determined by quantitative LC/MS/MS methodology, conducted at Integrated Analytical Solutions (on the internet at ianalytical.net). Plasma samples were precipitated with acetonitrile:methanol (1:1) cocktail containing an internal standard. The brain samples were homogenized directly in ethylacetate or extracted from 5M guanidine homogenates using the liquid-liquid method. The resulting supernatant were evaporated to dryness and subjected to the LC/MS/MS analysis. For each compound 3 mice were used for analysis. The brain-to-plasma ratios and brain levels were then be calculated to identify the best candidate(s) for further testing.

In a further data set the target is T1, MBP-eAPP230-624 (Homo sapiens, UniProt P05067).
T1 construct: 100 μg of purified MBP-eAPP230-624 were incubated with 50 μM Disulfuram
The experiment in a line: Small-angle X-ray scattering of MBP-eAPP230-624 incubated with compound. The data set is classed as binding. Conditions: for Dmax (Å) ± 10 / MWcalc/MWseq ± 0.2 / Rg (Å) ± 2 / binding to MBP-eAPP230-624 / APP and effect on conformation or dimerization: 50 μM compound; for Dmax (Å) ± 10 / MWcalc/MWseq ± 0.2 / Rg (Å) ± 2: MBP-eAPP230-624, 4° C., 1 hour; for binding to MBP-eAPP230-624 / APP and effect on conformation or dimerization: small-angle X-ray scattering. As for the experimental part: X-ray scattering data collection: To 100 μg of purified MBP-eAPP230-624 were incubated with 50 μM Disulfuram or 50 μM Sulfiram in 20 mM sodium phosphate pH 7.4, 137 mM sodium chloride, 0.05% dimethyl sulfoxide at 4° C. for 1 hour. The control sample was incubated in the buffer alone. The samples were then concentrated to approximately 1.5 mg/ml using […] NML concentrators. Small-angle X-ray scattering data were collected using protein concentrations in the range of 0.25-1.5 mg/ml and an X-ray wavelength of 1.11 Å at beam line 12.3.1 (Advanced Light Source). Samples of the filtrate were used for buffer subtraction. Data were integrated with software customized for the beam line and processed with the program PRIMUS (Konarev (2003) Journal of Applied Crystallography 36, 1277-1282). The program GNOM (Svergun, (1992) J. Appl. Crystallogr. 25, 495-503) was used to calculate the maximum dimension and the radius of gyration and to estimate the intensity of the scattering at zero angle for higher concentration samples. The molecule weight of each protein was calculated by comparing to the scattering of proteins of known molecule weight.

For data set [2] the following is noted: stated as known for the benzodiazepine; cited from earlier work.
Data set [3] in a line: Degradation in brain tissue. The data set is classed as in vitro ADME.
In data set [4] the test system is 7 W cells stably transfected with APP. The experiment in a line: […] sAPPα assay in 7 W APP transfected cells. The conditions noted are these: 7 W CHO cells, 1 μM compound, 24 h. The format is cell-based. On the procedure: In vitro compound testing assay: 7 W CHO cells were seeded at 50,000 cells/well in a 96 wells plate for 24 h. Then their medium was changed for fresh medium supplemented with 1 μM compounds (e.g., tropisetron, disulfuram, honokiol, and/or nimetazepam). After 24 h, 20 μl of the medium was added to 2 μl of the complete protease inhibitor with 1 μM EDTA and kept at 4° C. until analysis. 2 μl of that medium was treated with the Perkin Elmer (PE) […]® Aβ kit to determine the amount of Aβ42 secreted by the cells in 24 h using the PE-Enspire reader. Another aliquot of 2 μl of the medium was diluted with 50 μl of the PE […]® buffer and was treated with the PE […]® sAPPα kit to determine the amount of sAPPα secreted by the cells in 24 h. For the assay, 2 μl of the final mixture was treated with the acceptor bead and the donor antibody followed by addition of the donor beads and the […]® signal was measured using a PE-Enspire reader. For measurement of APPneo, the 50,000 cells were treated after seeding with fresh medium supplemented with or without the compound, but without fetal bovine serum (FBS), in order to induce the formation of the APPneo fragment. […]

T1 sequence (P05067 230-624 isoform P05067-4): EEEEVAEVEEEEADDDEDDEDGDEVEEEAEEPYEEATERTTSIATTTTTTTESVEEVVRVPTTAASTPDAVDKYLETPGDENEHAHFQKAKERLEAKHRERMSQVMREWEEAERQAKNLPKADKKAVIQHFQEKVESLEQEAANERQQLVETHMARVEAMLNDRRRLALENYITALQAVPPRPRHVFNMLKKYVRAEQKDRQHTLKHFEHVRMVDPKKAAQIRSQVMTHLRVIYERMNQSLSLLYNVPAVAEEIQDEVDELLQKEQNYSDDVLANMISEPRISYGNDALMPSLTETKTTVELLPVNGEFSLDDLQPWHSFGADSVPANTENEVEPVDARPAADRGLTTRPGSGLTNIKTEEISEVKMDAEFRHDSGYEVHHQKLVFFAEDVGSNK

On to `C=CCc1ccc(O)c(-c2ccc(O)c(CC=C)c2)c1` [honokiol, 2-(4-hydroxy-3-prop-2-enyl-phenyl)-4-prop-2-enyl-phenol], for which, in the data set on APP, the Aβ40 levels result was “No significant changes”; the Aβ42 levels entry is recorded as “No significant changes”; the “sAPPα levels in hippocampus (Hip) and entorhinal cortex (ECx)” value (shortened to “sAPPα levels in hippocampus”) is “no significant increase”. For the same molecule, the “blood-brain-barrier / brain penetration” value in data set [1] is “penetrates the brain well”.
As to `CCN(CC)C(=S)SC(=S)N(CC)CC` [Sulfiram], on MBP-eAPP230-624, the “Dmax (Å) ± 10” value worked out at 170 Å; the “MWcalc/MWseq ± 0.2” value was 1.7; the “Rg (Å) ± 2” value turned out to be 53 Å; the “binding to MBP-eAPP230-624 / APP and effect on conformation or dimerization” value is “bind to MBP-eAPP230-624 and alter the conformation of the protein”.
Regarding `CN1C(=O)CN=C(c2ccccc2)c2cc([N+](=O)[O-])ccc21` [Nimetazepam, 2-methyl-9-nitro-6-phenyl-2,5-diazabicyclo[5.4.0] undeca-5,8,10,12-tetraen-3-one], the Aβ40 levels entry in the data set on APP is “No significant changes”. The Aβ42 levels result in the data set on APP is “No significant changes”. Also, the “sAPPα levels in hippocampus” value with APP (10 mg/kg) was “significant increase”; with APP (listed as nimetazepam, 10 mg/kg), “increase”. Moreover, in data set [2], the “blood-brain-barrier penetration (known)” value is “cross the blood-brain-barrier well”.
As for `CCN(CC)C(=S)SSC(=S)N(CC)CC` [Disulfiram, 1,1′,1″,1′″-[disulfanediylbis(carbonothioylnitrilo)]tetraethane], on MBP-eAPP230-624, the “Dmax (Å) ± 10” value was 160 Å, the “MWcalc/MWseq ± 0.2” value is recorded as 1.5 and the “Rg (Å) ± 2” value came to 51 Å. The “binding affinity relative to sulfuram” value on MBP-eAPP230-624 (inferred from greater effect in X-ray scattering) is “higher binding affinity”. The “binding to MBP-eAPP230-624 / APP and effect on conformation or dimerization” value on MBP-eAPP230-624 (listed as Disulfuram) was “can bind to APP and disrupt APP dimerization”. The “binding to MBP-eAPP230-624 / APP and effect on conformation or dimerization” value at MBP-eAPP230-624 (listed as disulfuram) is “bind to MBP-eAPP230-624 and alter the conformation of the protein”. Further, the Aβ levels entry with APP (10 mpk) was “no changes”. In addition, the “sAPPα levels in hippocampus” value in the data set on APP was “no changes”. For the same molecule, the “stability in brain tissue” value in data set [3] is listed as “degrades rapidly in brain tissue”. In addition, in data set [1], the “blood-brain-barrier / brain penetration” value was “low blood-brain-barrier penetration”. For the same molecule, the “sAPPα levels secreted by cells” value in data set [4] is “increase”.
